Measured values as given in patent publication US20240245714A1, “COMPOSITION AND METHODS USING COMBINATION OF NARH AND NR TO PRODUCE INTRACELLULAR NICOTINAMIDE ADENINE DINUCLEOTIDE (NAD+)” (SOCIETE DES PRODUITS NESTLE S.A., priority 2021, published 2024).

Experiments:
MEF cells = assay: NAD+ induction in MEF cells; assay type: cell-based; conditions: MEF mouse fibroblast, 2 hours, NARH and NR 0.5 mM
Protocol: (§1) MEF cells were treated with dihydronicotinic acid riboside (NARH) and nicotinamide riboside (NR), alone or in combination for 2 hours. NARH and NR were used at the concentration of 0.5 mM. After treatment, cells were trypsinized and collected for NAD+ and protein content measurements. NAD+ was extracted and quantified using an EnzyChrom NAD/NADH Assay Kit (BioAssay Systems; #E2ND-100) according to the manufacturer's instructions. Proteins were quantified with BCA Protein Assay Kit (Pierce™; #23225). All results are expressed as mean+/−SD of n=2. NARH vs control P=0.7581; NR vs control P=0.5337; NRH+NR vs control P=0.0002.
MEF cells were treated with dihydronicotinic acid riboside (NARH) and nicotinamide riboside (NR), alone or in combination for 2 hours. NARH and NR were used at the concentration of 0.5 mM. After treatment, cells were trypsinized and collected for NAD+ and protein content measurements. NAD+ was extracted and quantified using an EnzyChrom NAD/NADH Assay Kit (BioAssay Systems; #E2ND-100) according to the manufacturer's instructions. Proteins were quantified with BCA Protein Assay Kit (Pierce™; #23225).

RAW 264.7 cells = assay: NAD+ induction in RAW 264.7 cells; assay type: cell-based; conditions: RAW 264.7 mouse macrophages, 2 hours, NARH and NR 0.5 mM
Protocol: as §1, with “RAW 264.7” for “MEF”, “scraped” for “trypsinized”, “n=2-4.” for “n=2.”, “P=0.8130;” for “P=0.7581;”, “P=0.0788;” for “P=0.5337;”, “P=0.0087.” for “P=0.0002.”
RAW 264.7 cells were treated with dihydronicotinic acid riboside (NARH) and nicotinamide riboside (NR), alone or in combination for 2 hours. NARH and NR were used at the concentration of 0.5 mM. After treatment, cells were scraped and collected for NAD+ and protein content measurements. NAD+ was extracted and quantified using an EnzyChrom NAD/NADH Assay Kit (BioAssay Systems; #E2ND-100) according to the manufacturer's instructions. Proteins were quantified with BCA Protein Assay Kit (Pierce™; #23225).

Structure (SMILES) | NAD+ induction (MEF cells) | NAD+ induction (RAW 264.7 cells)
O=C(O)C1=CN([C@@H]2O[C@H](CO)[C@@H](O)[C@@H]2O)C=CC1 [NARH, dihydronicotinic acid riboside] | not NARH or NR alone, induces NAD+ | not NARH or NR alone, induces NAD+
NC(=O)c1ccc[n+]([C@@H]2O[C@H](CO)[C@@H](O)[C@H]2O)c1 [NR, nicotinamide riboside] | not NARH or NR alone, induces NAD+ | not NARH or NR alone, induces NAD+
